Several values for one entry are separate records, joined by “and”; a condition that tells them apart may be missing. Equal entries are not always repeated.
Tests used:
IGF-1 = test: Clinical study in subjects 65-84 years: change from baseline in IGF-1; type: in vivo, human
Experimental: This clinical study was performed in male and female subjects between the ages of 65 and 84 years inclusive, and whose baseline IGF-1 levels were <150 ng/ml.
The study was a double blind, parallel group, placebo-controlled study.
(All dosage forms in this part of the study were immediate release dosage forms.)
In addition, an extension study was conducted to evaluate the relationship between peak GH concentrations or IGF-I versus surrogate responses such as lipid concentrations and body composition. A sustained release (SR) formulation was also evaluated, either alone or combined with an immediate release (IR) formulation (24-30 patients per group). [16 mg (10 SR, 6 IR) h.s. (h.s. means at bedtime); 16 mg (10 SR, 6 IR) h.s. every third day; 16 mg SR h.s.; and placebo.] The formulations are set forth below.
Study active compound was supplied in blisterpaks, with five tablets to be taken at time of each dosing. Subjects were instructed to take the tablets with one glass of water at bedtime.
Return visits were scheduled at 1, 2, and 4 weeks after baseline. […] The baseline and all subsequent follow-up visits were performed at the same time of day (between approximately 8-11 am).
A follow-up evaluation was made at 1, 2, and 4 weeks. Vital signs were obtained and the skin of the face, trunk and upper extremities was inspected.
The primary efficacy endpoint was the percentage change from baseline in IGF-1. Secondary outcomes included insulin-like growth factor binding protein 3 (IGFBP-3), cholesterol subfractions, and percent changes in total adipose and total lean tissue. Changes in each of the secondary efficacy measures over time were examined systematically either graphically or in tabular form and summarized using appropriate descriptive statistics as is well known in the art.

growth hormone = test: Simulated sustained release study (bolus vs divided oral solution): serum growth hormone; type: in vivo, human; details: for GH Tmax: individual subjects 1-4
Experimental: This dosing regimen simulates active compound delivery by a sustained release dosage form. […] Serum concentrations of growth hormone were monitored just prior to administration of the first dose and every 20 minutes thereafter for 24 hours. Serum […] growth factor-I (IGF-I) concentrations were measured at 0, 12, and 24 hours post-first dose.
The order of treatment was defined by a randomization schedule. Following initial administration, subjects were readmitted to the clinical research facility approximately 14 days later. During the second evaluation, the subject received the treatment not used during the previous session.
Growth hormone serum concentrations were determined following administration of the bolus or divided doses. Blood samples, adequate to provide 0.5 ml of serum, were collected just prior to administration of the first dose, and every 20 minutes thereafter for 24 hours for determination of growth hormone. Specimens were collected in tubes containing no additives, and were maintained at room temperature until clotted. The serum was separated from the whole blood and frozen at −20° C. within one hour of collection.
Growth hormone quantitation of the human serum samples was conducted using luminescence measurements by means of an Immulite® system (Diagnostic Products Corporation, Los Angeles, Calif.). All analyses were performed using a hGH Immulite® kit containing hGH test units (LGH 1), hGH reagent wedge (LGH 2) and hGH adjustors (LGHL and LGHH). These kits were obtained from DPC (Diagnostic Products Corporation, Los Angeles, Calif.). In addition, hGH sample diluent (LGHZ), chemiluminescent substrate module (LSUBX), probe wash module (LPWSZ) and the necessary Immulite® accessories were obtained from DPC. For each new kit, the Immulite® system was calibrated by running two adjuster samples (LGHL and LGHH) obtained from the manufacturer, containing a […] concentration of hGH in equine serum, respectively. […] The resulting luminescence was determined by means of an Immulite® system.

## CN1N=C2CCN(C(=O)[C@@H](COCc3ccccc3)NC(=O)C(C)(C)N)C[C@@]2(Cc2ccccc2)C1=O.O=C(O)C(O)C(O)C(=O)O [Compound A]
IGF-1; extension study, 16 mg (10 SR, 6 IR) h.s. every third day
  average rise of IGF-I: approximately 10%
IGF-1; extension study, each of the 2 groups dosed daily (16 mg (10 SR, 6 IR) h.s.; 16 mg SR h.s.)
  IGF-I: increases
IGF-1; first leg, both groups administered 9 mg daily (3 mg tid; 3 mg am and 6 mg pm), immediate release, subjects 65-84 years
  increase in IGF-I: approximately 35%
Growth hormone; 10 mg bolus, L-tartrate
  GH Tmax: 1 h (3×) and 0.67 h
Growth hormone; 10 mg divided, in h
  GH Tmax: 1
Growth hormone; simulated sustained release of 10 mg compared to bolus
  frequency and amplitude of secondary GH peaks: increased
